Reference: paper PMC6979384, “Characterization of the plant homeodomain (PHD) reader family for their histone tail interactions” (Epigenetics & Chromatin, 2020)

How the values were obtained:
Test in all cases: Histone peptide microarray
Format in all cases: binding, human
[1] = system: AIRE (PP); conditions: GST-tagged AIRE (PP), arrays performed twice
In short: (§1)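 A peptide microarray holding 293 synthetic histone peptides with individual or combinatorial modifications was probed with each GST-PHD protein at 0.5 μM. Values represent mean intensity (±SD) from four replicates.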

[2] = system: BAZ2B; conditions: GST-tagged BAZ2B, arrays performed twice
In short: as §1

[3] = system: BPTF (PB); conditions: arrays performed twice
In short: as §1

[4] = system: CHD4 (PPCC); conditions: arrays performed twice
In short: as §1

[5] = system: CHD5 (PCC); conditions: arrays performed twice
In short: as §1

[6] = system: CHD5 (PPCC); conditions: arrays performed twice
In short: as §1

[7] = system: DIDO1; conditions: GST-tagged DIDO1, arrays performed twice
In short: as §1

[8] = system: DPF2 (PPC2W2); conditions: arrays performed twice
In short: as §1

[9] = system: ING1; conditions: GST-tagged ING1, arrays performed twice
In short: as §1

[10] = system: ING2; conditions: GST-tagged ING2, arrays performed twice
In short: as §1

[11] = system: ING3; conditions: GST-tagged ING3, arrays performed twice
In short: as §1

[12] = system: ING4; conditions: GST-tagged ING4, arrays performed twice
In short: as §1

[13] = system: ING5; conditions: GST-tagged ING5, arrays performed twice
In short: as §1

[14] = system: KDM4C (TTP); conditions: arrays performed twice
In short: as §1

[15] = system: KDM5A (1); conditions: GST-tagged KDM5A (1), arrays performed twice
In short: as §1

[16] = system: KDM5A (3); conditions: GST-tagged KDM5A (3), arrays performed twice
In short: as §1

[17] = system: KDM5B (1); conditions: GST-tagged KDM5B (1), arrays performed twice
In short: as §1

[18] = system: KDM5B (3); conditions: GST-tagged KDM5B (3), arrays performed twice
In short: as §1

[19] = system: KDM7A; conditions: GST-tagged KDM7A, arrays performed twice
In short: as §1

[20] = system: MLL5; conditions: GST-tagged MLL5, arrays performed twice
In short: as §1

[21] = system: MORC3 (CW); conditions: arrays performed twice
In short: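 Each reader, produced as a GST fusion and purified, was tested at 0.5 μM on synthetic histone peptides (293 in total) carrying single or combinatorial marks. Intensities averaged over four replicates.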

[22] = system: PHF13; conditions: GST-tagged PHF13, arrays performed twice
In short: as §1

[23] = system: PHF21A; conditions: GST-tagged PHF21A, arrays performed twice
In short: as §1

[24] = system: PHF23; conditions: GST-tagged PHF23, arrays performed twice
In short: as §1

[25] = system: PHF2; conditions: GST-tagged PHF2, arrays performed twice
In short: as §1

[26] = system: PHF8; conditions: GST-tagged PHF8, arrays performed twice
In short: as §1

[27] = system: PHRF1 (RP); conditions: GST-tagged PHRF1 (RP), arrays performed twice
In short: as §1

[28] = system: RAG2; conditions: GST-tagged RAG2, arrays performed twice
In short: as §1

[29] = system: SP140L; conditions: GST-tagged SP140L, arrays performed twice
In short: as §1

[30] = system: TAF3; conditions: GST-tagged TAF3, arrays performed twice
In short: as §1

[31] = system: TRIM66 (PB); conditions: arrays performed twice
In short: as §1

[32] = sheet "Array Heatmap", total replicate number n = 4

H4K12ac + K16ac + K20me2: H4 11-27
Array Heatmap signal, AIRE (PP) ([1]; histone peptide array, n of 4): 0.4913 | Array Heatmap signal, BAZ2B ([2]; histone peptide array, n of 4): 0.5022 | Array Heatmap signal, BPTF (PB) ([3]; GST-tagged BPTF (PB = PHD + Bromodomain), histone peptide array, n of 4): 0.3936 | Array Heatmap signal, CHD4 (PPCC) ([4]; GST-tagged CHD4 (PPCC = Dual PHD + Dual Chromodomain), histone peptide array, n of 4): 0.5676 | Array Heatmap signal, CHD5 (PCC) ([5]; GST-tagged CHD5 (PCC = PHD + Dual Chromodomain), histone peptide array, n of 4): 0.8229 | Array Heatmap signal, CHD5 (PPCC) ([6]; GST-tagged CHD5 (PPCC = Dual PHD + Dual Chromodomain), histone peptide array, n of 4): 0.6049 | Array Heatmap signal, DIDO1 ([7]; histone peptide array, n of 4): 0.7262 | Array Heatmap signal, DPF2 (PPC2W2) ([8]; GST-tagged DPF2 (PPC2W2 = Dual PHD + C2W2-type Zn-finger), histone peptide array, n of 4): 0.6546 | Array Heatmap signal, ING1 ([9]; histone peptide array, n of 4): 0.5241 | Array Heatmap signal, ING2 ([10]; histone peptide array, n of 4): 0.6089 | Array Heatmap signal, ING3 ([11]; histone peptide array, n of 4): 0.5264 | Array Heatmap signal, ING4 ([12]; histone peptide array, n of 4): 0.4756 | Array Heatmap signal, ING5 ([13]; histone peptide array, n of 4): 0.405 | Array Heatmap signal, KDM4C (TTP) ([14]; GST-tagged KDM4C (TTP = Tandem Tudor domain + PHD), histone peptide array, n of 4): 0.537 | Array Heatmap signal, KDM5A (1) ([15]; histone peptide array, n of 4): 0.4994 | Array Heatmap signal, KDM5A (3) ([16]; histone peptide array, n of 4): 0.5092 | Array Heatmap signal, KDM5B (1) ([17]; histone peptide array, n of 4): 0.6899 | Array Heatmap signal, KDM5B (3) ([18]; histone peptide array, n of 4): 0.5172 | Array Heatmap signal, KDM7A ([19]; histone peptide array, n of 4): 0.418 | Array Heatmap signal, MLL5 ([20]; histone peptide array, n of 4): 0.5834 | Array Heatmap signal, MORC3 (CW) ([21]; GST-tagged MORC3 (CW = CW-type Zn-finger), histone peptide array, n of 4): 0.4076 | Array Heatmap signal, PHF13 ([22]; histone peptide array, n of 4): 0.6561 | Array Heatmap signal, PHF21A ([23]; histone peptide array, n of 4): 0.4824 | Array Heatmap signal, PHF23 ([24]; histone peptide array, n of 4): 0.5618 | Array Heatmap signal, PHF2 ([25]; histone peptide array, n of 4): 0.4604 | Array Heatmap signal, PHF8 ([26]; histone peptide array, n of 4): 0.3877 | Array Heatmap signal, PHRF1 (RP) ([27]; histone peptide array, n of 4): 0.4498 | Array Heatmap signal, RAG2 ([28]; histone peptide array, n of 4): 0.281 | Array Heatmap signal, SP140L ([29]; histone peptide array, n of 4): 0.3577 | Array Heatmap signal, TAF3 ([30]; histone peptide array, n of 4): 0.2922 | Array Heatmap signal, TRIM66 (PB) ([31]; GST-tagged TRIM66 (PB = PHD + Bromodomain), histone peptide array, n of 4): 0.6093

H3K4ac + K9me1 + K14ac + K18ac: H3 1-20
Array Heatmap signal, AIRE (PP) [1, 32]: 0.5251 | Array Heatmap signal, BAZ2B [2, 32]: 0.5783 | Array Heatmap signal, BPTF (PB) ([3]; sheet "Array Heatmap", GST-tagged BPTF (PB), total replicate number n = 4): 0.3424 | Array Heatmap signal, CHD4 (PPCC) ([4]; sheet "Array Heatmap", GST-tagged CHD4 (PPCC), total replicate number n = 4): 0.5629 | Array Heatmap signal, CHD5 (PCC) ([5]; sheet "Array Heatmap", GST-tagged CHD5 (PCC), total replicate number n = 4): 0.8198 | Array Heatmap signal, CHD5 (PPCC) ([6]; sheet "Array Heatmap", GST-tagged CHD5 (PPCC), total replicate number n = 4): 0.5431 | Array Heatmap signal, DIDO1 [7, 32]: 0.5412 | Array Heatmap signal, DPF2 (PPC2W2) ([8]; sheet "Array Heatmap", GST-tagged DPF2 (PPC2W2), total replicate number n = 4): 0.6154 | Array Heatmap signal, ING1 [9, 32]: 0.4555 | Array Heatmap signal, ING2 [10, 32]: 0.5869 | Array Heatmap signal, ING3 [11, 32]: 0.4265 | Array Heatmap signal, ING4 [12, 32]: 0.4584 | Array Heatmap signal, ING5 [13, 32]: 0.3469 | Array Heatmap signal, KDM4C (TTP) ([14]; sheet "Array Heatmap", GST-tagged KDM4C (TTP), total replicate number n = 4): 0.5174 | Array Heatmap signal, KDM5A (1) [15, 32]: 0.4805 | Array Heatmap signal, KDM5A (3) [16, 32]: 0.3935 | Array Heatmap signal, KDM5B (1) [17, 32]: 0.6293 | Array Heatmap signal, KDM5B (3) [18, 32]: 0.497 | Array Heatmap signal, KDM7A [19, 32]: 0.4836 | Array Heatmap signal, MLL5 [20, 32]: 0.5142 | Array Heatmap signal, MORC3 (CW) ([21]; sheet "Array Heatmap", GST-tagged MORC3 (CW), total replicate number n = 4): 0.3311 | Array Heatmap signal, PHF13 [22, 32]: 0.5879 | Array Heatmap signal, PHF21A [23, 32]: 0.4512 | Array Heatmap signal, PHF23 [24, 32]: 0.4792 | Array Heatmap signal, PHF2 [25, 32]: 0.368 | Array Heatmap signal, PHF8 [26, 32]: 0.3261 | Array Heatmap signal, PHRF1 (RP) [27, 32]: 0.3692 | Array Heatmap signal, RAG2 [28, 32]: 0.2267 | Array Heatmap signal, SP140L [29, 32]: 0.3469 | Array Heatmap signal, TAF3 [30, 32]: 0.2619 | Array Heatmap signal, TRIM66 (PB) ([31]; sheet "Array Heatmap", GST-tagged TRIM66 (PB), total replicate number n = 4): 0.5413
